Source: ChEMBL document CHEMBL1201862, “PubChem BioAssay data set” (2004)
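These data come from cells grown in 96-well plates and exposed to compound for 48 hours at five concentrations. Abbreviation: GI50, concentration required for 50% inhibition of growth.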 Calls of active or inactive are those of the source. Rule as the data show it: active = GI50 up to about 1.1 µM and inactive = higher.

Tests used:
Test in all cases: growth of human tumour cells (NCI), 48 h
786-0 = system: 786-0
A549 = system: A549
CCRF-CEM = system: CCRF-CEM
COLO 205 = system: COLO 205
K562 = system: K562
KM12 = system: KM12
M14 = system: M14
Malme-3M = system: Malme-3M
NCI-H522 = system: NCI-H522
OVCAR-4 = system: OVCAR-4
RXF 393 = system: RXF 393
SF-539 = system: SF-539
SK-MEL-2 = system: SK-MEL-2
SNB-75 = system: SNB-75
TK-10 = system: TK-10
UO-31 = system: UO-31
MCF7 = system: MCF7
RPMI-8226 = system: RPMI-8226

Measured: GI50

COc1ccc(Nc2nc3ccc(C(F)(F)F)cc3nc2-c2ccccc2)cc1OC
inactive: 786-0 23.3 µM | A549 39.5 µM | CCRF-CEM 25.1 µM | COLO 205 27.9 µM | K562 31.4 µM | KM12 21.5 µM | M14 55.5 µM | Malme-3M 51.9 µM | NCI-H522 24.7 µM | OVCAR-4 > 100 µM | RXF 393 23 µM | SF-539 42.6 µM | SK-MEL-2 57.5 µM | SNB-75 > 100 µM | TK-10 > 10 µM | UO-31 15.5 µM

O=C(CCN1CCCCC1)C(=Cc1ccccc1)C(=O)CCN1CCCCC1
inactive: 786-0 7.28 µM | A549 > 100 µM | CCRF-CEM 17.2 µM | COLO 205 27.7 µM | K562 19.7 µM | KM12 > 64.7 µM | M14 5.18 µM | MCF7 35.8 µM | Malme-3M > 10 µM | NCI-H522 1.23 µM | OVCAR-4 > 100 µM | RPMI-8226 20.8 µM | RXF 393 6.52 µM | SF-539 49.8 µM | SK-MEL-2 > 100 µM | SNB-75 > 100 µM | UO-31 > 100 µM

CC1=C(C(=O)CC(=O)C(=O)Nc2ccc(Cl)cc2C)Sc2ccccc2N1
inactive: 786-0 > 100 µM | A549 > 100 µM | CCRF-CEM > 100 µM | COLO 205 > 100 µM | K562 > 100 µM | KM12 > 100 µM | M14 > 100 µM | Malme-3M > 100 µM | NCI-H522 > 84.7 µM | OVCAR-4 > 100 µM | RPMI-8226 > 100 µM | RXF 393 > 100 µM | SF-539 > 100 µM | SK-MEL-2 > 100 µM | SNB-75 > 100 µM | TK-10 > 100 µM | UO-31 > 100 µM

O=C(NCCCC/N=c1/cccccc1NCCCCNC(=O)OCc1ccccc1)OCc1ccccc1
inactive: 786-0 16.4 µM | A549 26.5 µM | CCRF-CEM 16.6 µM | K562 10.1 µM | KM12 17.9 µM | M14 14.5 µM | Malme-3M 20.4 µM | NCI-H522 17.2 µM | OVCAR-4 18.9 µM | RPMI-8226 13 µM | RXF 393 17.8 µM | SF-539 16.3 µM | SK-MEL-2 18.8 µM | SNB-75 18.7 µM | TK-10 19.2 µM | UO-31 7.43 µM

CC(O[Si](c1ccccc1)(c1ccccc1)C(C)(C)C)[C@H](NC(=O)OC(C)(C)C)C(=O)O (some centres undefined)
inactive: 786-0 42.4 µM | A549 30.4 µM | CCRF-CEM 10.2 µM | COLO 205 22.7 µM | K562 46.6 µM | KM12 35.3 µM | M14 38.3 µM | MCF7 27.5 µM | Malme-3M 50 µM | OVCAR-4 26.4 µM | RPMI-8226 35.6 µM | RXF 393 35 µM | SNB-75 43.7 µM | TK-10 45 µM | UO-31 33.9 µM

CC(C)=CC(=O)CC(=O)C(=O)Nc1ccc(Cl)c(Cl)c1
inactive: 786-0 > 100 µM | A549 > 100 µM | CCRF-CEM > 100 µM | COLO 205 > 100 µM | K562 > 100 µM | KM12 > 100 µM | M14 > 100 µM | Malme-3M > 100 µM | NCI-H522 > 100 µM | OVCAR-4 > 100 µM | RPMI-8226 > 100 µM | RXF 393 > 100 µM | SF-539 > 100 µM | SK-MEL-2 > 100 µM | SNB-75 > 100 µM | TK-10 > 100 µM | UO-31 > 100 µM

CC1(C)O[C@@H](CCl)C[C@H](C#N)O1
inactive: 786-0 > 100 µM | A549 > 100 µM | CCRF-CEM > 100 µM | COLO 205 > 100 µM | K562 > 100 µM | KM12 > 100 µM | M14 > 100 µM | Malme-3M > 100 µM | NCI-H522 > 100 µM | OVCAR-4 > 100 µM | RPMI-8226 > 100 µM | RXF 393 > 100 µM | SF-539 > 100 µM | SK-MEL-2 > 100 µM | SNB-75 > 100 µM | TK-10 > 100 µM | UO-31 > 100 µM

N=C(N)NS(=O)(=O)c1ccc(NC(=O)c2cccc3c(Nc4ccc(S(=O)(=O)N=C(N)N)cc4)c4ccccc4nc23)cc1
inactive: 786-0 50.9 µM | A549 79.1 µM | CCRF-CEM 43.9 µM | COLO 205 31.3 µM | K562 5.98 µM | KM12 33.4 µM | M14 50.8 µM | Malme-3M > 100 µM | NCI-H522 7.94 µM | OVCAR-4 26.6 µM | RPMI-8226 > 100 µM | RXF 393 99.1 µM | SF-539 41.1 µM | SK-MEL-2 > 100 µM | SNB-75 6.05 µM | TK-10 52 µM | UO-31 > 100 µM

COc1ccc2c(c1)[n+]([O-])c(C(=O)C/C(=N/NC(=O)c1ccccc1O)C(=O)Nc1ccc(Cl)c(C(F)(F)F)c1)c(C)[n+]2[O-]
inactive: 786-0 54.5 µM | A549 > 100 µM | CCRF-CEM 36.4 µM | COLO 205 71 µM | K562 64.4 µM | KM12 89.1 µM | M14 51.4 µM | Malme-3M 49.7 µM | NCI-H522 39.6 µM | OVCAR-4 87.9 µM | RXF 393 > 100 µM | SF-539 > 100 µM | SK-MEL-2 > 100 µM | SNB-75 66.5 µM | TK-10 50.5 µM | UO-31 20.7 µM

O=C1OCC/C1=N/O
inactive: 786-0 > 100 µM | A549 > 100 µM | CCRF-CEM > 100 µM | COLO 205 > 100 µM | K562 > 100 µM | KM12 > 100 µM | M14 > 100 µM | Malme-3M > 100 µM | NCI-H522 > 100 µM | OVCAR-4 > 100 µM | RPMI-8226 > 100 µM | RXF 393 > 100 µM | SF-539 > 100 µM | SK-MEL-2 > 100 µM | SNB-75 > 100 µM | TK-10 > 100 µM | UO-31 > 100 µM

Cc1ccccc1NC(=O)C(=O)CC(=O)C1CCOC1=O (centres undefined)
inactive: 786-0 > 100 µM | A549 > 100 µM | CCRF-CEM > 100 µM | COLO 205 > 100 µM | K562 > 100 µM | KM12 > 100 µM | M14 > 100 µM | Malme-3M > 100 µM | NCI-H522 > 100 µM | OVCAR-4 > 100 µM | RPMI-8226 > 100 µM | RXF 393 > 100 µM | SF-539 > 100 µM | SK-MEL-2 > 100 µM | SNB-75 > 100 µM | TK-10 > 100 µM | UO-31 > 100 µM

Cc1cccc(C(C)C)c1NC(=O)C(=O)C(C(=O)c1ccccc1F)C1OC(=O)c2ccccc21 (centres undefined)
inactive: 786-0 15.7 µM | A549 37.5 µM | CCRF-CEM 6.19 µM | COLO 205 21.1 µM | K562 20.4 µM | KM12 19.2 µM | M14 16.8 µM | Malme-3M 9.82 µM | NCI-H522 13.8 µM | OVCAR-4 21.8 µM | RPMI-8226 4.78 µM | RXF 393 11.4 µM | SF-539 8.28 µM | SK-MEL-2 15.7 µM | SNB-75 9.75 µM | TK-10 39.6 µM | UO-31 16.8 µM

CCOC(=O)/C(=C\c1ccc(N(CCC#N)CCC#N)cc1C)NC(=O)/C=C/c1ccccc1
inactive: 786-0 > 100 µM | A549 > 100 µM | CCRF-CEM > 100 µM | COLO 205 > 100 µM | K562 > 100 µM | KM12 > 100 µM | M14 > 100 µM | Malme-3M > 100 µM | NCI-H522 > 100 µM | RPMI-8226 > 100 µM | RXF 393 > 100 µM | SF-539 > 100 µM | SK-MEL-2 > 100 µM | SNB-75 > 100 µM | TK-10 > 100 µM | UO-31 > 100 µM

COc1ccc(/C=C(\NC(=O)c2ccccc2)c2nc3ccccc3[nH]2)cc1OC
inactive: 786-0 > 100 µM | A549 > 100 µM | CCRF-CEM 85.9 µM | COLO 205 > 100 µM | K562 > 100 µM | KM12 > 100 µM | M14 > 100 µM | Malme-3M > 100 µM | NCI-H522 > 100 µM | OVCAR-4 > 100 µM | RPMI-8226 80.5 µM | RXF 393 > 100 µM | SF-539 > 100 µM | SK-MEL-2 > 100 µM | SNB-75 > 100 µM | TK-10 > 100 µM | UO-31 99.3 µM

Cn1ccnc1C(c1nccn1C)C(C)(C)[N+](=O)[O-]
inactive: 786-0 > 100 µM | A549 > 100 µM | CCRF-CEM > 100 µM | COLO 205 > 100 µM | K562 > 100 µM | KM12 > 100 µM | M14 > 100 µM | NCI-H522 > 100 µM | OVCAR-4 > 100 µM | RPMI-8226 > 100 µM | RXF 393 > 100 µM | SF-539 > 100 µM | SK-MEL-2 > 100 µM | SNB-75 > 100 µM | TK-10 > 100 µM

Cn1cnc([N+](=O)[O-])c1Sc1n[nH]c(-c2ccc(Cl)cc2)n1
inactive: 786-0 20.3 µM | A549 25.3 µM | CCRF-CEM 11.8 µM | COLO 205 17.1 µM | K562 13.7 µM | KM12 18.5 µM | M14 15 µM | Malme-3M 11.1 µM | NCI-H522 11.7 µM | OVCAR-4 18.3 µM | RPMI-8226 22.1 µM | RXF 393 13.3 µM | SF-539 15.3 µM | SK-MEL-2 13.6 µM | SNB-75 18.6 µM | TK-10 17.7 µM | UO-31 19.1 µM
